Assay [1] relates to LPS-TRAPed population in the cNST. The assay is described as follows: Blood cytokine levels after LPS with chemogenetic (DREADD) activation of LPS-TRAPed cNST neurons. In kind it is in vivo. The method, then: FIG. 12 illustrates the effect of neuronal stimulation in the caudal nucleus of the solitary tract on the immune response. […] Neuronal populations were chemogenetically activated with designer receptor exclusively activated by a designer drug (DREADD) while the animal is given LPS and cytokine levels in the blood were measured. In the control animals, LPS induced the strong release of pro-inflammatory TNFa, reaching 200 pg/ml in the peripheral blood. When this brainstem neuronal population was activated with DREADD, there was a remarkable suppression of pro-inflammatory cytokine release, resulting in 90% reduction in the TNFa in the blood. The same results were obtained for another proinflammatory cytokine, IL-6. In addition to suppressing the release of pro-inflammatory cytokines, activation of this neuronal population markedly increase the release of the anti-inflammatory cytokine, IL-10. Thus, this brain circuit triggers a strong anti-inflammatory response while suppressing pro-inflammatory cytokines. Note that under normal conditions (control) the immune insult triggers a very large induction of pro-inflammatory cytokines (TNFa; left panels), and this induction is suppressed by activation of the cNST neurons (compare bars). […]
FIG. 19 illustrates that activating cNST-responsive neurons dramatically suppresses inflammatory responses. […] These neurons were artificially activated after LPS using a synthetic drug, CNO, and then cytokine levels in the circulation were analyzed in response to LPS.
It was shown that neurons in the caudal nucleus of the solitary tract (cNST) in the brainstem are activated by peripheral (intraperitoneal) administration of LPS (lipopolysaccharide), a potent inducer of inflammatory responses (FIG. 5). […] Next, to uncover the role of these cNST neurons in immune responses, a chemogenetic silencer was introduced by genetic Trapping, and the effect of silencing these cNST neurons in the emergence of LPS-induced inflammatory responses was evaluated. […]

The test system of assay [2] is caudal nucleus of the solitary tract (cNST). The assay is described as follows: TRAP activity-based labelling of LPS-responsive neurons. In kind it is in vivo. To be noted: LPS-treated vs saline treated animals. The source says: The activity based labelling strategy, TRAP, was used to identify and access neuronal populations activated during LPS induced inflammation. Neurons TRAPed by LPS (right) but not saline control (left) are seen in the cNST (circled area). For each condition, a representative image from N>=3 animals is shown. Scale bar: 500 μm.
It was shown that neurons in the caudal nucleus of the solitary tract (cNST) in the brainstem are activated by peripheral (intraperitoneal) administration of LPS (lipopolysaccharide), a potent inducer of inflammatory responses (FIG. 5). […] In other words, the brain monitors and modulates immune responses in the body. […] Next, to uncover the role of these cNST neurons in immune responses, a chemogenetic silencer was introduced by genetic Trapping, and the effect of silencing these cNST neurons in the emergence of LPS-induced inflammatory responses was evaluated.

For assay [3] the test system is unchanged. The assay is described as follows: Fos induction in the brain after peripheral LPS immune challenge. It is filed as in vivo. To be noted: LPS stimulus vs saline control; c-fos as proxy for neural activity. The source says: Peripheral immune challenge evokes brain activities. LPS was used to induce an innate immune response and the brain was examined for the induction of c-fos as a proxy for neural activity. […] When the body experiences bacterial infections, the bacterial membrane component lipopolysaccharide (LPS) triggers strong innate immune response. LPS (right) but not saline control (left) strongly activates cNST (circled area). For each condition, a representative image from N>=3 animals is shown. Scale bar: 100 μm. Strong bilateral c-fos labeling was detected in the caudal nucleus of the solitary tract (cNST) in the brainstem.
A brainstem circuit that functions as a conduit to convey peripheral immune information to the brain was identified. […] Using an activity marker (cFos induction), it was determined that a selective population of neurons in the brain are activated in response to administration of a peripheral immune insult.
It was shown that neurons in the caudal nucleus of the solitary tract (cNST) in the brainstem are activated by peripheral (intraperitoneal) administration of LPS (lipopolysaccharide), a potent inducer of inflammatory responses (FIG. 5). […] Next, to uncover the role of these cNST neurons in immune responses, a chemogenetic silencer was introduced by genetic Trapping, and the effect of silencing these cNST neurons in the emergence of LPS-induced inflammatory responses was evaluated.

The next assay deals with vagal sensory neurons. The assay is described as follows: In-vivo calcium imaging (GCaMP6s) of nodose ganglion after intraperitoneal cytokine. To be noted: intraperitoneal injection; no response to saline or glucose. The protocol:
FIG. 7 illustrates a subset of neurons in the nodose ganglion that respond to pro-inflammatory cytokines. Calcium responses in vagal sensory neurons expressing the genetically encoded fluorescent calcium indicator GCaMP6s were imaged while administering cytokines intraperitoneally. The platform was modified to image the response of vagal sensory neurons to cytokines. The cytokine was administered via intraperitoneal injection and calcium activity in the nodose ganglion was monitored. Heat maps depicting z-score-normalized fluorescence traces from vagal neurons identified as responders of proinflammatory cytokine (TNFa). Neural activity was detected using an in-vivo calcium imaging platform with genetically encoded calcium indicator GCaMP6 expressed in all vagal sensory neurons. Each trial represents the activity of a single cell. […]
FIG. 8 illustrates a subset of neurons in the nodose ganglion that respond to anti-inflammatory cytokines. Heat maps depicting z-score-normalized fluorescence traces from vagal neurons identified as responders of anti-inflammatory cytokines (IL-4). […] Neural activity was detected using an in-vivo calcium imaging platform with genetically encoded calcium indicator GCaMP6 expressed in all vagal sensory neurons. […] The cytokine was administered via intraperitoneal injection and calcium activity in the nodose ganglion was monitored. […]

Where [4] appears, read: TRAPed cNST neurons activated after LPS, cytokine levels in the circulation.

Consider `C[N+]1([O-])CCN(C2=Nc3cc(Cl)ccc3Nc3ccccc32)CC1` [CNO, clozapine N-oxide], for which, in assay [1] (setting [4]), the “levels of anti-inflammatory cytokines” value is recorded as “very large increase” and the “release of pro-inflammatory cytokines” value is “dramatic suppression”. Take lipopolysaccharide [LPS]: the “labelling of cNST with fluorescence reporter (tdTomato)” value in assay [2] is “Strong labelling”. The “TNFa in the peripheral blood” value in assay [1] (control animals given LPS, no neuronal activation) was 200 pg/mL. Also, in assay [3], the “Fos induction in the cNST” value is given as “Strong Fos induction”. In the case of TNFa, the “calcium activity in a subset of vagal sensory neurons” value in the assay on vagal sensory neurons is “robust activity”.

B1: IL-4: anti-inflammatory cytokine administered intraperitoneally (protein, UniProt P05112 25-153, looked up)
Interleukin-4: HKCDITLQEIIKTLNSLTEQKTLCTELTVTDIFAASKNTTEKETFCRAATVLRQFYSHHEKDTRCLGATAQQFHRHKQLIRFLKRLDRNLWGLAGLNSCPVKEANQSTLENFLERLKTIMREKYSKCSS
B1: in the assay with vagal sensory neurons, the “calcium activity in a subset of vagal sensory neurons” value is reported as “robust activity”.

The values above are taken from US20260041796A1, “REGULATION OF IMMUNE RESPONSES THROUGH SELECTIVE NEURAL ACTIVATION” (The Trustees of Columbia University in the City of New York, priority 2021, published 2026).
